According to ChEMBL document CHEMBL1129710, “Glycomimetic selectin inhibitors: (-D-mannopyranosyloxy)methylbiphenyls” (Bioorg Med Chem Lett, 1996):
Activity calls are given as the source filed them. No cut-off for these calls is given here.

How the values were obtained:
HL-60 [1] = test: Compound was tested for its ability to inhibit sialyl Lewis X (sLex, IC50 = 2 mM) dependent binding of HL-60 cells to P-selectin fusion protein; type: functional
HL-60 [2] = test: Compound was tested for its ability to inhibit sialyl Lewis X dependent binding of HL-60 cells to P-selectin fusion protein; type: functional, cell-based; conditions: Homo sapiens
E-selectin = molecular target: T1, E-selectin (Mus musculus, UniProt Q00690); test: Compound was tested for its ability to inhibit sialyl Lewis X dependent binding of HL-60 cells to Selectin E fusion protein
T1 sequence (Q00690 whole entry): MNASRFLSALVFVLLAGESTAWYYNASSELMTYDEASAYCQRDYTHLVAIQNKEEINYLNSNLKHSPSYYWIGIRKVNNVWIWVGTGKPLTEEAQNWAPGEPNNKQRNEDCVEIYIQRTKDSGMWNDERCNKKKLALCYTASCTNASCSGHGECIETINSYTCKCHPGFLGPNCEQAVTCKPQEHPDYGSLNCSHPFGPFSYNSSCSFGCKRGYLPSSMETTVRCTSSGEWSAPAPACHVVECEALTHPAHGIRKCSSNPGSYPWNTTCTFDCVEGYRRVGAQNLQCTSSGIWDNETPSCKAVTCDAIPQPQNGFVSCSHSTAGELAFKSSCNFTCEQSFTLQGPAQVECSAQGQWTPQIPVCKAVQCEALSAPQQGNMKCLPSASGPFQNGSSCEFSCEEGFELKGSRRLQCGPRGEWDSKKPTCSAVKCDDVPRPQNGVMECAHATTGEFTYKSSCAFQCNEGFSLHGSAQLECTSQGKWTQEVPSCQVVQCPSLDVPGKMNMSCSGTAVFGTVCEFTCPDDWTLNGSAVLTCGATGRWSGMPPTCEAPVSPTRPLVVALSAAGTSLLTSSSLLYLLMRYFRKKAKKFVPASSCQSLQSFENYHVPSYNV

HL-60 [3] = test: Compound was tested for its ability to inhibit sialyl Lewis X (sLex, IC50 = 2 mM) dependent binding of HL-60 cells to P-selectin fusion protein; Not assayed; type: functional, cell-based

| Compound | Ratio (HL-60 [1]) | further results |
| --- | --- | --- |
| O=C(O)Cc1cccc(-c2cccc(CO[C@H]3O[C@H](CO)[C@@H](O)[C@@H](O)[C@@H]3O)c2)c1 | 1.2 |  |
| O=C(O)Cc1cccc(-c2ccc(CO[C@H]3O[C@H](CO)[C@@H](O)[C@@H](O)[C@@H]3O)cc2)c1 | >>2.3 |  |
| O=C(O)COc1cccc(-c2cccc(CO[C@H]3O[C@H](CO)[C@@H](O)[C@@H](O)[C@@H]3O)c2)c1 | 4.8 |  |
| O=C(O)c1cccc(-c2cccc(CO[C@H]3O[C@H](CO)[C@@H](O)[C@@H](O)[C@@H]3O)c2)c1 | 2.5 |  |
| O=C(O)CCC(=O)c1ccc(-c2cccc(CO[C@H]3O[C@H](CO)[C@@H](O)[C@@H](O)[C@@H]3O)c2)cc1 | >>10 |  |
| Cc1cc(-c2cccc(CO[C@H]3O[C@H](CO)[C@@H](O)[C@@H](O)[C@@H]3O)c2)cc(C)c1OCC(=O)O | 0.5 |  |
| CC(=O)N[C@H]1[C@H]([C@H](O)[C@H](O)CO)O[C@@](O[C@H]2[C@@H](O)[C@@H](CO)O[C@@H](O[C@@H]([C@H](O[C@@H]3O[C@@H](C)[C@@H](O)[C@@H](O)[C@@H]3O)[C@H](C=O)NC(C)=O)[C@H](O)CO)[C@@H]2O)(C(=O)O)C[C@@H]1O [SIALYL LEWIS X] |  | IC50 (HL-60 [2]): 2000 µM; IC50 (E-selectin): 3000 µM |
| O=C(O)COc1ccc(-c2cccc(CO[C@H]3O[C@H](CO)[C@@H](O)[C@@H](O)[C@@H]3O)c2)cc1 | 1.2 |  |
| O=C(O)Cc1cccc(-c2ccccc2CO[C@H]2O[C@H](CO)[C@@H](O)[C@@H](O)[C@@H]2O)c1 |  | Ratio (HL-60 [3]): inactive |
| O=C(O)Cc1ccc(-c2cccc(CO[C@H]3O[C@H](CO)[C@@H](O)[C@@H](O)[C@@H]3O)c2)cc1 | >20 |  |
